Some test systems named below: SK-MEL-28 melanoma; SNB-75 CNS; CCRF-CEM leukemia; IGROV1 ovarian; MDA-MB-231 breast; SF-295 CNS; MCF7 breast; U251 CNS; UO-31 renal; OVCAR-4 ovarian.
What all share (assay): NCI tumour cell line growth inhibition, 48 h

Values joined by “and” are separate entries in the source; they are usually repeats but may differ in a detail not shown here. Equal values may be shown once.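 Five concentrations, 48 hours, 96-well plates. GI50 marks 50% less growth. The concentration for full growth arrest is given as TGI.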 Where only a bound is given, the exact number is not on record here.

GI50 and TGI data for 8 compounds are collected here from PubChem BioAssay (NCI).

On to `Cc1nn(-c2nc3ccccc3s2)c(C)c1Oc1ccccc1O`, for which the GI50 in the test on SK-MEL-28 melanoma is 10.2 µM; with SNB-75 CNS, 1.73 µM; in the test on CCRF-CEM leukemia, 5.14 µM; with IGROV1 ovarian it was 12.6 µM; with MDA-MB-231 breast, 10.8 µM; in the test on SF-295 CNS, 3.2 µM. Moreover, the GI50 was 4.19 µM in the test with MCF7 breast, 1.39 µM with U251 CNS, 4.44 µM in the test on UO-31 renal and 10.3 µM with OVCAR-4 ovarian. The TGI in the test on SK-MEL-28 melanoma was 21.8 µM; with SNB-75 CNS, 24.3 µM; in the test on CCRF-CEM leukemia, 47.8 µM; with IGROV1 ovarian, 35.8 µM; with MDA-MB-231 breast, 25.9 µM; in the test with SF-295 CNS it was 17.2 µM. In addition, the TGI is 24.6 µM with MCF7 breast, 16.3 µM in the test on U251 CNS, 18.6 µM in the test on UO-31 renal and 29.5 µM with OVCAR-4 ovarian.

With `CC1=NN(c2ccccc2)C(=O)C1N=Nc1ccc([As](=O)(O)O)c(O)c1` (stereo not drawn), the TGI with SK-MEL-28 melanoma is over 100 µM; in the test with SNB-75 CNS it was over 100 µM; with CCRF-CEM leukemia it was 92.6 µM; with IGROV1 ovarian, over 100 µM; in the test with MDA-MB-231 breast, over 100 µM; in the test with SF-295 CNS, over 100 µM. For the same compound, the TGI with MCF7 breast, with U251 CNS, with UO-31 renal and in the test on OVCAR-4 ovarian was over 100 µM throughout.

With `CCC(C)(C)C(=O)O[C@H]1C[C@@H](C)C=C2C=C[C@H](C)[C@H](CC[C@@H]3C[C@@H](O)CC(=O)O3)[C@H]21`, the GI50 is 5.05 µM in the test with SK-MEL-28 melanoma; 2.08 µM in the test with IGROV1 ovarian; 0.224 µM in the test on MDA-MB-231 breast; 0.434 µM with SF-295 CNS; 12.2 µM in the test with MCF7 breast; 0.371 µM in the test with U251 CNS. Further, the results for the GI50 in the test with UO-31 renal and with OVCAR-4 ovarian were 2.85 µM and 6.1 µM, respectively. The TGI is 18.8 µM and > 30 µM with SK-MEL-28 melanoma; 5.37 µM and > 30 µM in the test with SNB-75 CNS; 30.2 µM and > 30 µM in the test on CCRF-CEM leukemia; 13.2 µM and 4.5 µM in the test with IGROV1 ovarian; 0.732 µM in the test on MDA-MB-231 breast; 8.03 µM and 2.61 µM with SF-295 CNS. Moreover, the TGI is 26.7 µM with MCF7 breast; 5.44 µM and > 30 µM in the test with U251 CNS; 14.7 µM and 10.1 µM in the test with UO-31 renal; 20.5 µM and > 30 µM in the test on OVCAR-4 ovarian.

With `CCN(CC)CCCC(C)Nc1cnc(C(=O)Nc2ccc(Cl)c3cccnc23)cn1` (stereo not drawn), the GI50 in the test on SK-MEL-28 melanoma is 1.79 µM; in the test on SNB-75 CNS, 3.18 µM; with CCRF-CEM leukemia, 0.484 µM; in the test on IGROV1 ovarian, 1.62 µM; with MDA-MB-231 breast it was 1.68 µM; with SF-295 CNS it was 2.11 µM. The GI50 with MCF7 breast was 1.68 µM; with U251 CNS, 1.93 µM; in the test with UO-31 renal it was 1.48 µM; with OVCAR-4 ovarian, 2.42 µM. Also, the TGI with SK-MEL-28 melanoma turned out to be 3.28 µM; in the test on SNB-75 CNS, 15.1 µM; with CCRF-CEM leukemia, 2.27 µM; in the test on IGROV1 ovarian, 4.11 µM; with MDA-MB-231 breast, 3.76 µM; in the test with SF-295 CNS it was 4.92 µM. For the same compound, the TGI with MCF7 breast was found to be 4.39 µM; in the test on U251 CNS it was 3.83 µM; in the test with UO-31 renal, 2.9 µM; in the test with OVCAR-4 ovarian, 6.99 µM.

For `Oc1ccc2cc(Br)ccc2c1-c1c(O)ccc2cc(Br)ccc12`, the GI50 was 3.68 µM in the test on SK-MEL-28 melanoma; 3.15 µM with SNB-75 CNS; 3.31 µM in the test on CCRF-CEM leukemia; 2.06 µM in the test with IGROV1 ovarian; 1.76 µM in the test on MDA-MB-231 breast; 2.46 µM in the test with SF-295 CNS. In addition, the GI50 in the test on MCF7 breast is 2.49 µM; in the test with U251 CNS, 3.93 µM; in the test with UO-31 renal it was 1.96 µM; in the test on OVCAR-4 ovarian, 4.89 µM. Further, the TGI in the test with SK-MEL-28 melanoma stood at 13.1 µM; in the test on SNB-75 CNS, 13.9 µM; in the test with CCRF-CEM leukemia, 12 µM; with IGROV1 ovarian it was 11.8 µM; in the test on MDA-MB-231 breast it was 4.55 µM; with SF-295 CNS, 6.79 µM. Besides, the TGI was 6.76 µM in the test on MCF7 breast, 12.9 µM with U251 CNS, 9.92 µM with UO-31 renal and 14.6 µM with OVCAR-4 ovarian.

Take `CC1=CC(=NC(=O)CBr)C=C/C1=N\S(=O)(=O)c1ccccc1`: the GI50 in the test with SK-MEL-28 melanoma was 6.25 µM; in the test on SNB-75 CNS, 13.5 µM; in the test on CCRF-CEM leukemia, 2.45 µM; with IGROV1 ovarian, 3.1 µM; in the test with MDA-MB-231 breast, 2.48 µM; with SF-295 CNS, 15.8 µM. In addition, the GI50 was 1.8 µM in the test on MCF7 breast, 3.37 µM in the test on U251 CNS, 2.77 µM with UO-31 renal and 2.61 µM in the test on OVCAR-4 ovarian. Further, the TGI with SK-MEL-28 melanoma came to 19.4 µM; with SNB-75 CNS, 30.4 µM; in the test with CCRF-CEM leukemia, 8.16 µM; in the test with IGROV1 ovarian it was 12.1 µM; with MDA-MB-231 breast it was 6.42 µM; in the test on SF-295 CNS, 33.1 µM. For the same compound, the TGI came to 4.37 µM with MCF7 breast, 12.2 µM in the test with U251 CNS, 12.6 µM in the test on UO-31 renal and 13.2 µM in the test with OVCAR-4 ovarian.

`COc1ccc2c(c1)c(-c1ccc(-c3cn(S(=O)(=O)c4ccccc4)c4ccc(OC)cc34)s1)cn2S(=O)(=O)c1ccccc1`: the GI50 with SK-MEL-28 melanoma, with SNB-75 CNS, in the test with CCRF-CEM leukemia, in the test on IGROV1 ovarian, in the test with MDA-MB-231 breast and in the test on SF-295 CNS was over 100 µM throughout. The GI50 in the test with MCF7 breast, with U251 CNS, in the test on UO-31 renal and in the test on OVCAR-4 ovarian was over 100 µM throughout. For the same compound, the TGI in the test on SK-MEL-28 melanoma, in the test on SNB-75 CNS, in the test on CCRF-CEM leukemia, with IGROV1 ovarian, in the test with MDA-MB-231 breast and in the test on SF-295 CNS was over 100 µM throughout. Besides, the TGI with MCF7 breast, with U251 CNS, in the test with UO-31 renal and with OVCAR-4 ovarian was over 100 µM in each case.

For `COc1cc2nc3sc(C(=O)Nc4ccc(C(=O)OC(C)C)cc4)c(C(=O)Nc4ccc(Cl)cc4C)n3c(=O)c2cc1OC`, the GI50 in the test with SK-MEL-28 melanoma was 46.2 µM; with SNB-75 CNS, 10.2 µM; in the test with CCRF-CEM leukemia, 4.66 µM; with IGROV1 ovarian, 0.69 µM; in the test with MDA-MB-231 breast it was 11.2 µM; in the test with SF-295 CNS, 11.2 µM. For the same compound, the GI50 was 14.1 µM in the test with MCF7 breast, 5.14 µM in the test on U251 CNS, 25.7 µM with UO-31 renal and 11.2 µM in the test with OVCAR-4 ovarian. Further, the TGI with SK-MEL-28 melanoma was over 100 µM; in the test on SNB-75 CNS, 27.8 µM; in the test with CCRF-CEM leukemia, 30.2 µM; with IGROV1 ovarian it was 17.8 µM; in the test on MDA-MB-231 breast, 38.4 µM; with SF-295 CNS it was 29 µM. Moreover, the TGI is over 100 µM in the test on MCF7 breast, 18.4 µM in the test on U251 CNS, over 100 µM with UO-31 renal and over 100 µM in the test on OVCAR-4 ovarian.
